Experimental data: patent US20260226096A1, “MODIFIED PROTEINS OR PEPTIDES FOR COVALENT TARGETING” (YEDA RESEARCH AND DEVELOPMENT CO. LTD., priority 2023, published 2026)
Non-standard residues stand in square brackets, D forms with d. Residues, ends and D or L forms follow the SMILES beside them. Primed or numbered codes have the meaning given here. No end group written: not given here. *: point of attachment. Pra′ = its azide, alkyne or alkene has reacted where a group follows in round brackets; methacrylate = methacrylate-modified cysteine (mC); pT = C[C@@H](OP(=O)(O)O)[C@H](N)C(=O)O; mC = methacrylate-modified cysteine; pS = N[C@@H](COP(=O)(O)O)C(=O)O; BODIPY = not defined here; Dab = NCC[C@H](N)C(=O)O; X1 = C=C(C*)C(=O)OCC; ClAc = O=C(CCl)*

Legend:
[1] = Peptide stability in buffer and intrinsic reactivity with lysine and cysteine; assay type: physicochemical; settings: room temperature, timescale of days
Description: The intrinsic reactivity and stability of the active peptides with their labeling rates were compared). Their stability was tested in buffer and in the presence of lysine and cysteine at room temperature. […] The reactivity towards cysteine was much higher—the peptides reacted with cysteine to generate both Michael adducts as well as substitution products in which the thiol peptide is released. Peptides SEQ ID 3, SEQ ID 8 and SEQ ID 11 were more than >50% reacted within 2.5 hours.
The LS/MS runs for peptides were performed using the same instrument with a C18-CSH column (300 Å, 1.7 μm, […]) using a gradient starting from 1% B for 1 minute, rising to 95% B in 4.5 minutes, holding at 95% B for 0.75 minutes, then decreasing to 1% B in 0.75 minutes and holding at 1% B for 1 minute. MS data were collected at a range of 80-2500 m/z, using identical conditions for ionization as with the protein.

14-3-3σ [2] = target: T1, 14-3-3σ (Homo sapiens, UniProt P31947); test: Covalent labeling of 14-3-3σ by peptides, intact protein LC/MS; settings: for labeling of 14-3-3σ within 5 hours / labeling of 14-3-3σ after 48 hours / covalent labeling of 14-3-3σ with the expected adduct mass: 14-3-3σ 2 μM; for labeling of 14-3-3σ within 5 hours: time course; for labeling of 14-3-3σ after 48 hours: room temperature; for covalent labeling of 14-3-3σ with the expected adduct mass: peptide 200 μM, 4° C. overnight
T1 sequence (P31947 with tags, fused parts or gaps): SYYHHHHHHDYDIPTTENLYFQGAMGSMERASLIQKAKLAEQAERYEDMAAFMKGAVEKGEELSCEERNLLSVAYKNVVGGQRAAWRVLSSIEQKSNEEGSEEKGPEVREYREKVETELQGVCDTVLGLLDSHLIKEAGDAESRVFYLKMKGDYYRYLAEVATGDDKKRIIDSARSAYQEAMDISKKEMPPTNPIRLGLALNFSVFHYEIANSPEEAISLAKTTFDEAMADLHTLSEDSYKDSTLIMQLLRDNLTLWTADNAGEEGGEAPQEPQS

14-3-3 isoforms = test: Binding to 14-3-3 isoforms using LC-MS qTOF; settings: protein:peptide 1:5, overnight, 4° C.
Description: The 14-3-3 isoforms were buffer-exchanged into complexation buffer (20 mM HEPES pH 7.5, 100 mM NaCl, 10 mM MgCl2) and mixed with the peptides (3/8) in a 1:5 molar stoichiometry (protein:peptide) at a final concentration of 10 mg/mL. The complexes were buffer-exchanged into milliQ+0.1% formic acid after overnight incubation at 4° C.
UPLC-QToF-MS analysis was performed on a Waters (Milford, MA, USA) Acquity I-Class UPLC system coupled to a Waters Xevo G2 quadrupole time-of-flight (QToF) mass spectrometer. The devices were controlled by MassLynx Software (version 4.1, Waters, MA, USA). Full scan in positive electrospray ionization (ESI+) mode was used as MS acquisition mode with an acquisition range from 200-2000 m/z. […] The samples concentration were 0.01-0.1 mg/mL, and the injection volume was 1 μL. Deconvolution was performed by the MaxEnt1 option of the MassLynx software. Errors were calculated using the MaxEnt Errors option.

14-3-3σ [3] = target: T1, 14-3-3σ; test: Fluorescence polarization competition/binding experiment; settings: 14-3-3σ 0.25 μM, fluorescent peptide 5 nM, 27° C., immediately after mixing
[4] = Differential scanning fluorimetry for Im-E9 complexes; assay type: physicochemical; settings: SYPRO Orange, protein 40 μM
Description: SYPRO Orange (X5000 stock) was diluted 200-fold in buffer, and from this stock 13 μl were added to each sample, diluting the protein to 40 μM. Each sample were split into 3 technical replicates and heated in a thermal cycler over 1.5 hours to 95° C. while measuring the fluorescence.

[5] = target: T2, human 14-3-3σ with an N-terminal His6-tag (SEQ ID 28) (human); test: time course, intact protein LC/MS; 5 µM peptide, 2 µM 14-3-3σ
T2 chain: T1 sequence (P31947 with tags, fused parts or gaps)

[6] = target: T2, human 14-3-3σ with an N-terminal …; test: 2 µM 14-3-3σ with 5 µM peptide, 48 hours at room temperature
[7] = target: T2, human 14-3-3σ with an N-terminal …; test: intact protein LC/MS; 200 µM peptide, 2 µM 14-3-3σ, 4° C. overnight
[8] = target: T2, human 14-3-3σ with an N-terminal …; test: not told how it was measured; probe of the fluorescence polarization experiment

With `C=C(CSC[C@H](NC(=O)[C@H](COP(=O)(O)O)NC(=O)[C@H](C)NC(=O)[C@H](CO)NC(=O)[C@H](CCCNC(=N)N)NC(C)=O)C(=O)N1CCC[C@H]1C(=O)N[C@@H](CO)C(=O)N[C@@H](CC(C)C)C(N)=O)C(=O)OCC` [SEQ ID 3, Ac-RSApSmCPSL-NH2] (Ac-RSA[pS]C(X1)PSL-NH2) the “stability in buffer over days” value [1] was “remained unmodified even after 3 days”, the “labeling of 14-3-3σ within 5 hours” value (14-3-3σ [2]; peptide 5 μM, 25° C.) was 60% and the “labeling of 14-3-3σ after 48 hours” value (14-3-3σ [2]; peptide 5 μM) was ~ 75%. The “covalent labeling of 14-3-3σ with the expected adduct mass” value (shortened to “covalent labeling of 14-3-3σ”) (14-3-3σ [2]) was 51%.

In the case of `C=C(CSC[C@H](NC(=O)[C@H](COP(=O)(O)O)NC(=O)[C@H](Cc1c[nH]cn1)NC(=O)[C@H](C)NC(=O)[C@H](CCCNC(=N)N)NC(C)=O)C(=O)N1CCC[C@H]1C(=O)N[C@@H](C)C(=O)N[C@@H](CO)C(=O)N[C@@H](CC(C)C)C(=O)N[C@@H](CCC(N)=O)C(N)=O)C(=O)OCC` [SEQ ID 8, Ac-RAHpSmCPASLQ-NH2] (Ac-RAH[pS]C(X1)PASLQ-NH2), the “stability in buffer over days” value [1] is reported as “formed a new product with the same mass as the original peptide”, the “labeling of 14-3-3σ within 5 hours” value (14-3-3σ [2]; peptide 5 μM, 25° C.) is reported as 80% and the “labeling of 14-3-3σ after 48 hours” value (14-3-3σ [2]; peptide 5 μM) is reported as 90%. For the same molecule, the “covalent labeling of 14-3-3σ” value (14-3-3σ [2]) was 35%.

For `C=C(CSC[C@H](NC(=O)[C@H](CO)NC(=O)[C@H](C)NC(=O)[C@@H]1CCCN1C(=O)[C@H](CO)NC(=O)[C@H](COP(=O)(O)O)NC(=O)[C@H](Cc1c[nH]cn1)NC(=O)[C@H](C)NC(=O)[C@H](CCCNC(=N)N)NC(C)=O)C(=O)N[C@@H](CCC(N)=O)C(N)=O)C(=O)OCC` [SEQ ID 11, Ac-RAHpSSPASmCQ-NH2] (Ac-RAH[pS]SPASC(X1)Q-NH2), the “stability in buffer over days” value [1] was “formed a new product with the same mass as the original peptide”, the “labeling of 14-3-3σ after 48 hours” value (14-3-3σ [2]; peptide 5 μM) was 100% and the “free (non-labelled) 14-3-3σ remaining within 2.5 hours” value (14-3-3σ [2]; peptide 5 μM, 25° C.) was “less than 5%”. The “covalent labeling of 14-3-3σ” value (14-3-3σ [2]) was 11%.

For “Ac-RAHpSSPASLX-NH2 (Ac-RAH[pS]SPASL[Dab](ClAc)-NH2) [SEQ ID 12, chloroacetamide warhead peptide that reacts with 14-3-3σ via Cys38, used as a positive control]”, the “labeling of 14-3-3 isoforms” value (14-3-3 isoforms) was “labeled only the sigma isoform”.

In the case of “Ac-RAHpSSPAmCLQ-NH2 (Ac-RAH[pS]SPAC(methacrylate)LQ-NH2) [SEQ ID 10]”, the “displacement of the fluorescent binder at 5 μM” value (14-3-3σ [3]; peptide 5 μM) is reported as “had sufficient affinity to displace the fluorescent binder”.

For “Ac-SHpTLmCS-NH2 (Ac-SH[pT]LC(methacrylate)S-NH2) [SEQ ID 2]”, the “displacement of the fluorescent binder at 200 μM” value (14-3-3σ [3]; peptide 200 μM) was “all peptides except peptide SEQ ID 2 displaced the binder”.

For “Im9: immunity protein, inhibitory partner of the E9 nuclease, in its free (unmodified) form”, the “unfolding (melting) temperature” value [4] was “around 50 °C”.

B1: Peptide SEQ ID 3, Ac-RSApSmCPSL-NH2 (peptide)
peptide: Ac-RSA[pS][mC]PSL-NH2
For B1, the “fold increase of the rate of labeling at 37° C. against 25° C.” value [5] was roughly 4 fold, the “covalent labeling (%)” value [6] was roughly 75% and the “covalent labeling (%)” value [7] was 51%.

B2: BODIPY-labeled noncovalent binder for 14-3-3σ (SEQ ID 38) (peptide)
peptide: [Pra′](BODIPY)RAH[pS]PASL[Dab]
modifications: not fully specified (N-terminus, C-terminus); reading uncertain
With B2 the Kd [8] was roughly 100 nM.

B3: Peptide SEQ ID 8, Ac-RAHpSmCPASLQ-NH2 (peptide)
peptide: Ac-RAH[pS][mC]PASLQ-NH2
In the case of B3, the “fold increase of the rate of labeling at 37° C. against 25° C.” value [5] is reported as roughly 4 fold, the “covalent labeling (%)” value [6] is reported as 90% and the “covalent labeling (%)” value [7] is reported as 35%.

B4: Peptide SEQ ID 11, Ac-RAHpSSPASmCQ-NH2 (peptide)
peptide: Ac-RAH[pS]SPASC(methacrylate)Q-NH2
In the case of B4, the “covalent labeling (%)” value [6] is reported as 100% and the “covalent labeling (%)” value [7] is reported as 11%.

B5: Peptide SEQ ID 1, Ac-SHpTmCPS-NH2 (peptide)
peptide: Ac-SH[pT][mC]PS-NH2
In the case of B5, the “covalent labeling (%)” value [7] is reported as roughly 10%.
